Data published in patent publication US10874631B2, “Altertoxin II as a selective inhibitor of Ewing family of tumor cells” (priority 2016, dated 2020).

Assays:
Assay type in all cases: cell-based
[1] = system: A204; test: SRB assay, growth inhibition; details: A204, RMS
Experimental: (§1) FIG. 3A-3B. (A) The effects of altertoxin II were evaluated using the SRB assay in 6 Ewing sarcoma cell lines as compared to 4 other pediatric solid tumor cells lines. n≥3 independent experiments. (B) The effects of altertoxin II were evaluated by the Houghton laboratory using the alamar blue assay in an additional 6 Ewing sarcoma cell lines and potency compared to the activities in 5 rhabdomyosarcoma cell lines. n=3 independent experiments.
(§2) The effects of altertoxin II were studied in a larger panel of cell lines and the GI50, the concentration that causes 50% inhibition of cell growth, and the TGI, the concentration that caused total growth inhibition, were determined using the sulforhodamine b (SRB assay). The mean GI50 values shown graphically in FIG. 3A. The IC50, the concentration that causes 50% inhibition of cell proliferation, values were determined in a second panel of Ewing sarcoma and rhabdomyosarcoma cell lines using the altar blue assay and these values are presented in Table 2 and the mean in […].

[2] = system: A673; test: SRB assay, growth inhibition; details: A673, EWS
Experimental: as §1, §2

[3] = system: D283; test: SRB assay, growth inhibition; details: D283, Med
Experimental: as §1, §2

[4] = system: RD-ES; test: SRB assay, growth inhibition; details: EWS
Experimental: as §1, §2

[5] = system: SH-SY-5Y; test: SRB assay, growth inhibition; details: NB
Experimental: as §1, §2

[6] = system: SK-ES-1; test: SRB assay, growth inhibition
Experimental: as §1, §2

[7] = system: SK-N-BE2; test: SRB assay, growth inhibition
Experimental: as §1, §2

[8] = system: ES-2; test: alamar blue assay, proliferation; details: Homo sapiens, ES-2, Ewing Sarcoma, N = 3-6
Experimental: as §1, §2

[9] = system: ES-4; test: alamar blue assay, proliferation; details: ES-4, Ewing Sarcoma
Experimental: as §1, §2

[10] = system: ES-7; test: alamar blue assay, proliferation; details: Homo sapiens, ES7, ES-7, Ewing Sarcoma
Experimental: as §1, §2

[11] = system: ES-8; test: alamar blue assay, proliferation; details: Homo sapiens, ES8, ES-8, Ewing Sarcoma
Experimental: as §1, §2

[12] = system: EW-8; test: alamar blue assay, proliferation
Experimental: as §1, §2

[13] = system: Rh18; test: alamar blue assay, proliferation; details: Homo sapiens, Rh18, Rhabdomyosarcoma
Experimental: as §1, §2

[14] = system: Rh28; test: alamar blue assay, proliferation; details: Rh28, Rhabdomyosarcoma
Experimental: as §1, §2

[15] = system: Rh30; test: alamar blue assay, proliferation; details: Rh30, Rhabdomyosarcoma
Experimental: as §1, §2

[16] = system: Rh36; test: alamar blue assay, proliferation; details: Rh36, Rhabdomyosarcoma
Experimental: as §1, §2

[17] = system: Rh41; test: alamar blue assay, proliferation; details: Homo sapiens, Rh41, Rhabdomyosarcoma
Experimental: as §1, §2

[18] = system: Rh5; test: alamar blue assay, proliferation; details: Rh5, Rhabdomyosarcoma
Experimental: as §1, §2

[19] = system: TC-71; test: alamar blue assay, proliferation; details: TC-71, Ewing Sarcoma
Experimental: as §1, §2

[20] = system: Ewing sarcoma cell lines; test: SRB assay panel, selectivity Ewing sarcoma vs other pediatric solid tumor cell lines; details: mean GI50, 6 Ewing sarcoma cell lines
Experimental: as §1, §2

[21] = system: Ewing sarcoma cell lines; test: alamar blue panel, selectivity Ewing sarcoma vs rhabdomyosarcoma cell lines; details: alamar blue assay, mean IC50; 6 Ewing sarcoma vs 6 rhabdomyosarcoma cell lines
Experimental: FIG. 3A-3B. (A) The effects of altertoxin II were evaluated using the SRB assay in 6 Ewing sarcoma cell lines as compared to 4 other pediatric solid tumor cells lines. n≥3 independent experiments. […]
as §2

[22] = system: A673 Ewing sarcoma cells; test: 53BP1 foci immunofluorescence; details: 10 nM and 100 nM, within 6 h
Experimental: (§3) FIG. 8A-8B. The effects of 10 and 100 nM altertoxin II (ATXII) on 53BP1 foci were evaluated following a 6 h treatment of A673 cells by indirect immunofluorescence. (B) Immunofluorescence of R-loop marker S9.6 in TC-32 cells 24 h after ATXII treatment. Arrows indicate R-loops within nuclei.
(§4) Multiple investigators have shown that Ewing sarcoma cells undergo replication stress and R-loop accumulation.

[23] = system: TC-32 cells; test: R-loop marker S9.6 immunofluorescence; details: TC-32 nuclei, 24 h
Experimental: as §3, §4

[24] = system: A673 Ewing sarcoma cells; test: DNA damage response immunoblot (Chk1, Chk2); details: 10-300 nM, within 6 h
Experimental: FIG. 9A-9B. Altertoxin II causes phosphorylation of CHK1 and 2 and p53 in Ewing sarcoma cells. Ewing sarcoma cells, A673, RD-ES, SK-ES-1, or rhabdomyosarcoma A204 cells were treated with altertoxin II at the concentrations indicated for 6 h (A) or 24 h (B) and whole-cell lysates prepared and proteins separated by SDS-PAGE. These samples were analyzed by immunoblotting for total and phosphorylated Chk1 and 2 and p53 (A).
Downstream activation of DNA damage response proteins by altertoxin II was subsequently evaluated.

[25] = system: Rh30 cells; test: Conditioned media effect on cell growth, SRB assay; details: media from TC-32 cells treated with 100 nM for 6 h, vs media from Rh30 cells
Experimental: FIG. 10. Effects of ATXII-conditioned media on Rh30 cell growth. TC-32 or Rh30 cells were treated with 100 nM ATXII for 6 h, the media added to Rh30 cells and cell growth determined with the SRB assay.
An experiment was conducted to test this possibility. TC-32 Ewing sarcoma and Rh30 rhabdomyosarcoma cells were treated with 100 nM ATX for 6 h and the conditioned media was then applied to the resistant Rh30 cells. […] Differences in the altertoxin II concentration were measured by LC/MS in media from TC-32 and HepG2 hepatocellular carcinoma cells.

In the case of `O=C1CC[C@]2(O)c3c(ccc(O)c31)-c1ccc(O)c3c1[C@H]2[C@H]1O[C@H]1C3=O` [altertoxin II], the TGI [1] is reported as 1.5 µM, the GI50 ([1]; Homo sapiens) is reported as 0.96 µM and the TGI [2] is reported as 0.139 µM. For the same molecule, the GI50 ([2]; Homo sapiens) was 0.028 µM, the GI50 [3] was 0.94 µM and the TGI [3] was 1.7 µM. For the same molecule, the GI50 ([4]; n ≥ 3) was 0.014 µM, the TGI ([4]; total growth inhibitory concentration) was 0.06 µM and the GI50 ([5]; Homo sapiens, SH-SY5Y) was 0.56 µM. It also gave a TGI [5] of 0.92 µM, a GI50 ([6]; Homo sapiens, SK-ES1, SK-ES-1, EWS) of 0.035 µM and a TGI ([6]; SK-ES-1, EWS) of 0.151 µM. It also gave a GI50 ([7]; Homo sapiens, SKNBE2, SK-N-BE2, NB) of 1 µM, a TGI ([7]; SK-N-BE2, NB) of 2 µM and an IC50 [8] of 0.023 ± 0.004 µM. It also gave an IC50 [9] of 0.02 ± 0.002 µM, an IC50 [10] of 0.003 ± 0.001 µM and an IC50 [11] of 0.007 ± 0.001 µM. The IC50 ([12]; EW8, EW-8, Ewing Sarcoma, alamar blue) was 0.0065 ± 0.0003 µM, the “sensitivity of EW-8 cell line” value ([12]; EW-8 is resistant to PARP1 inhibitors) was “highly sensitive” and the IC50 [13] was 0.99 ± 0.12 µM. It also gave an IC50 [14] of 0.79 ± 0.09 µM, an IC50 [15] of 0.75 ± 0.06 µM and an IC50 [16] of 1.03 ± 0.21 µM. The IC50 [17] was 1.13 ± 0.3 µM, the IC50 [18] was 1.05 ± 0.23 µM and the IC50 [19] was 0.0046 ± 0.0005 µM. The “selectivity of Ewing sarcoma cell lines vs other pediatric solid tumor cell lines” value [20] was 58 fold, the “selectivity of Ewing sarcoma cell lines vs rhabdomyosarcoma cell lines” value [21] was 89 fold and the 53BP1 foci [22] was “nuclear foci were noted”. The “R-loop formation (S9.6 marker)” value [23] was “increased formation of R-loops”, the “phosphorylation of Chk1 and Chk2” value [24] was “caused phosphorylation of checkpoint kinase 1 and 2” and the “activity of conditioned media against Rh30 cells” value [25] was “substantially higher activity”.
